Experimental data taken from article PMC10584170, “Machine learning-based phenotypic imaging to characterise the targetable biology of Plasmodium falciparum male gametocytes for the development of transmission-blocking antimalarials” (PLOS Pathogens, 2023).
Where two headings read alike, the source gives them in different places.

Assays:
[1] = tested on: P. falciparum female gametocytes; assay: P. falciparum Dual Gamete Formation Assay (PfDGFA), female readout (Pfs25-positive female gametes); type: cell-based, Plasmodium falciparum NF54; details: for HitlevelF: number of replicates with >50% inhibition in the female readout; for Selectivity ratio F: HepG2 Tox50 versus female IC50; for IC50: PfDGFA, 24 h incubation with gametocytes before induction, female gamete readout, read-out: Female IC50
Outline: (§1)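 Mature NF54 gametocytes (day 14) were incubated with compound for 24 h at 37°C under 1% O2/3% CO2, then triggered with xanthurenic acid ookinete medium plus Cy3-anti-Pfs25. Exflagellation was imaged by brightfield; after a further 24 h at 28°C, Pfs25-positive female gametes were imaged by fluorescence and counted by automated image analysis.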

HepG2 cells = assay: HepG2 cytotoxicity counter-screen; details: cytotoxic activity against HepG2 cells
[2] = tested on: P. falciparum male gametocytes; assay: P. falciparum Dual Gamete Formation Assay (PfDGFA), male readout (exflagellation); type: cell-based, Plasmodium falciparum NF54; details: for HitlevelM: number of replicates with >50% inhibition in the male readout; for Selectivity Ratio M: HepG2 Tox50 versus male IC50; for IC50: PfDGFA, 24 h incubation with gametocytes before induction, exflagellation readout, read-out: Male IC50
Outline: as §1

[3] = PfDGFA at 2µM, 24h preincubation with gametocytes, average of replicates
[4] = PfDGFA at 2µM, 24h preincubation with gametocytes, replicate R1
[5] = PfDGFA at 2µM, 24h preincubation with gametocytes, replicate R4
[6] = 2µM, 24h preincubation with gametocytes, average of replicates
[7] = 2µM, 24h preincubation with gametocytes, replicate R1
[8] = 2µM, 24h preincubation with gametocytes, replicate R3
[9] = 2µM, 24h preincubation with gametocytes, replicate R4

Question: Which HitlevelF ([1]; 2µM, 24h preincubation) does the source give for `CC(C)(CNC(=O)[C@H]1CCCCN1)c1nc(-c2ccc(Cl)c(O)c2)c(-c2ccncc2)[nH]1.Cl` [TCMDC-141070] here?
Answer: 4

Question: And the “Selectivity ratio F” value [1]?
Answer: 51.37

Question: What about the inhibition at 2 µM ([1]; Plasmodium falciparum, 2µM, 24h preincubation with gametocytes prior to induction of gametogenesis, average of replicates, read-out: Average inhibition female (%)) of the same compound?
Answer: 83.6%

Question: What about the inhibition at 2 µM ([1]; Plasmodium falciparum, 2µM, 24h preincubation with gametocytes prior to induction of gametogenesis, replicate R1, read-out: % inhibition female (individual replicates) R1) of the same compound?
Answer: 71.8%

Question: What about the inhibition at 2 µM ([1]; Plasmodium falciparum, 2µM, 24h preincubation with gametocytes prior to induction of gametogenesis, replicate R2, read-out: % inhibition female (individual replicates) R2) of the same compound?
Answer: 79.1%

Question: What about the inhibition at 2 µM ([1]; Plasmodium falciparum, 2µM, 24h preincubation with gametocytes prior to induction of gametogenesis, replicate R3, read-out: % inhibition female (individual replicates) R3) of the same compound?
Answer: 95.8%

Question: What about the inhibition at 2 µM ([1]; Plasmodium falciparum, 2µM, 24h preincubation with gametocytes prior to induction of gametogenesis, replicate R4, read-out: % inhibition female (individual replicates) R4) of the same compound?
Answer: 87.7%

Question: What about the IC50 ([1]; Plasmodium falciparum) of the same compound?
Answer: 1020 nM

Question: And the Tox50 (HepG2 cells)?
Answer: 52.33 µM

Question: What about the HitlevelM ([2]; 2µM, 24h preincubation) of the same compound?
Answer: 1

Question: What about the “Selectivity Ratio M” value [2] of the same compound?
Answer: 32.01

Question: What about the inhibition at 2 µM ([2]; Plasmodium falciparum, 2µM, 24h preincubation with gametocytes prior to induction of gametogenesis, average of replicates, read-out: Average inhibition male (%)) of the same compound?
Answer: 20.5%

Question: What about the inhibition at 2 µM ([2]; Plasmodium falciparum, 2µM, 24h preincubation with gametocytes prior to induction of gametogenesis, replicate R1, read-out: % inhibition male (individual replicates) R1) of the same compound?
Answer: -8.8%

Question: And the inhibition at 2 µM ([2]; Plasmodium falciparum, 2µM, 24h preincubation with gametocytes prior to induction of gametogenesis, replicate R2, read-out: % inhibition male (individual replicates) R2)?
Answer: -11.5%

Question: And the inhibition at 2 µM ([2]; Plasmodium falciparum, 2µM, 24h preincubation with gametocytes prior to induction of gametogenesis, replicate R3, read-out: % inhibition male (individual replicates) R3)?
Answer: 48.5%

Question: What about the inhibition at 2 µM ([2]; Plasmodium falciparum, 2µM, 24h preincubation with gametocytes prior to induction of gametogenesis, replicate R4, read-out: % inhibition male (individual replicates) R4) of the same compound?
Answer: 54%

Question: What about the IC50 ([2]; Plasmodium falciparum) of the same compound?
Answer: 1630 nM

Question: What does the source list for `Cl.NCC1(c2nc(-c3ccc(Cl)c(O)c3)c(-c3ccncc3)[nH]2)CCCCC1` [TCMDC-141154]?
Answer: Selectivity ratio F [1]: 23.04; inhibition at 2 µM ([1]; Plasmodium falciparum, 2µM, 24h preincubation with gametocytes, average of replicates, read-out: Average inhibition female (%)): 94.3%; inhibition at 2 µM ([1]; Plasmodium falciparum, 2µM, 24h preincubation with gametocytes, replicate R1, read-out: % inhibition female (individual replicates) R1): 92.5%; inhibition at 2 µM ([1]; Plasmodium falciparum, 2µM, 24h preincubation with gametocytes, replicate R2, read-out: % inhibition female (individual replicates) R2): 91.3%; inhibition at 2 µM ([1]; Plasmodium falciparum, 2µM, 24h preincubation with gametocytes, replicate R3, read-out: % inhibition female (individual replicates) R3): 101%; inhibition at 2 µM ([1]; Plasmodium falciparum, 2µM, 24h preincubation with gametocytes, replicate R4, read-out: % inhibition female (individual replicates) R4): 92.3%; IC50 ([1]; Plasmodium falciparum): 430 nM; Tox50 (HepG2 cells): 9.89 µM; Selectivity Ratio M [2]: 11.58; inhibition at 2 µM ([2]; Plasmodium falciparum, 2µM, 24h preincubation with gametocytes, average of replicates, read-out: Average inhibition male (%)): 99.7%; inhibition at 2 µM ([2]; Plasmodium falciparum, 2µM, 24h preincubation with gametocytes, replicate R1, read-out: % inhibition male (individual replicates) R1): 95.4%; inhibition at 2 µM ([2]; Plasmodium falciparum, 2µM, 24h preincubation with gametocytes, replicate R2, read-out: % inhibition male (individual replicates) R2): 103%; inhibition at 2 µM ([2]; Plasmodium falciparum, 2µM, 24h preincubation with gametocytes, replicate R3, read-out: % inhibition male (individual replicates) R3): 95.7%; inhibition at 2 µM ([2]; Plasmodium falciparum, 2µM, 24h preincubation with gametocytes, replicate R4, read-out: % inhibition male (individual replicates) R4): 105%; IC50 ([2]; Plasmodium falciparum): 850 nM

Question: What does the source list for `CNC(=O)c1cnc(Nc2ccc(N3CCN(C)CC3)cc2)nc1Nc1ccccc1OC.O=C(O)C(F)(F)F` [TCMDC-141382]?
Answer: Selectivity ratio F [1]: 3.56; inhibition at 2 µM ([1]; Plasmodium falciparum, PfDGFA at 2µM, 24h preincubation with gametocytes, average of replicates, read-out: Average inhibition female (%)): 0.5%; inhibition at 2 µM ([1]; Plasmodium falciparum, PfDGFA at 2µM, 24h preincubation with gametocytes, replicate R1, read-out: % inhibition female (individual replicates) R1): -10.9%; inhibition at 2 µM ([1]; Plasmodium falciparum, PfDGFA at 2µM, 24h preincubation with gametocytes, replicate R2, read-out: % inhibition female (individual replicates) R2): 1.1%; inhibition at 2 µM ([1]; Plasmodium falciparum, PfDGFA at 2µM, 24h preincubation with gametocytes, replicate R3, read-out: % inhibition female (individual replicates) R3): 15.6%; inhibition at 2 µM ([1]; Plasmodium falciparum, PfDGFA at 2µM, 24h preincubation with gametocytes, replicate R4, read-out: % inhibition female (individual replicates) R4): -3.9%; IC50 ([1]; Plasmodium falciparum): > 10000 nM; HitlevelF ([1]; 2µM): 0; Tox50 (HepG2 cells): 35.63 µM; Selectivity Ratio M [2]: 29.58; inhibition at 2 µM ([2]; Plasmodium falciparum, PfDGFA at 2µM, 24h preincubation with gametocytes, average of replicates, read-out: Average inhibition male (%)): 82.8%; inhibition at 2 µM ([2]; Plasmodium falciparum, PfDGFA at 2µM, 24h preincubation with gametocytes, replicate R1, read-out: % inhibition male (individual replicates) R1): 83.2%; inhibition at 2 µM ([2]; Plasmodium falciparum, PfDGFA at 2µM, 24h preincubation with gametocytes, replicate R2, read-out: % inhibition male (individual replicates) R2): 85.9%; inhibition at 2 µM ([2]; Plasmodium falciparum, PfDGFA at 2µM, 24h preincubation with gametocytes, replicate R3, read-out: % inhibition male (individual replicates) R3): 82.1%; inhibition at 2 µM ([2]; Plasmodium falciparum, PfDGFA at 2µM, 24h preincubation with gametocytes, replicate R4, read-out: % inhibition male (individual replicates) R4): 80.2%; IC50 ([2]; Plasmodium falciparum): 1200 nM; HitlevelM ([2]; 2µM): 4

Question: Which results are given for `CN(C)CC(O)COc1ccc(Nc2ncc([N+](=O)[O-])c(Nc3ccccc3O)n2)cc1.O=C(O)C(F)(F)F` (stereo not drawn) [TCMDC-141399]?
Answer: Selectivity ratio F [1]: 0.27; Average inhibition female (%) [1, 3]: 9.6%; % inhibition female (individual replicates) R1 [1, 4]: 0.18%; % inhibition female (individual replicates) R3 ([1]; PfDGFA at 2µM, 24h preincubation with gametocytes, replicate R3): 2.4%; % inhibition female (individual replicates) R4 [1, 5]: 9.1%; HitlevelF ([1]; 2µM): 0; Tox50 (HepG2 cells): 2.69 µM; Selectivity Ratio M [2]: 1.47; Average inhibition male (%) [2, 3]: 87.0%; % inhibition male (individual replicates) R1 [2, 4]: 80.9%; % inhibition male (individual replicates) R4 [2, 5]: 85.8%; IC50 [2]: 1830 nM; HitlevelM ([2]; 2µM): 3

Question: With `Cc1ccc(Cn2nc(Cl)c(N3CCNCC3)cc2=O)cc1NC(=O)Nc1ccc(-c2ccccc2)cc1.O=C(O)C(F)(F)F` [TCMDC-141698] as the compound, how does the “Average inhibition female (%)” value [1, 6] read?
Answer: 53.1%

Question: And the “% inhibition female (individual replicates) R1” value [1, 7]?
Answer: 36.8%

Question: And the “% inhibition female (individual replicates) R3” value [1, 8]?
Answer: 40.3%

Question: And the “% inhibition female (individual replicates) R4” value [1, 9]?
Answer: 66.3%

Question: And the “Selectivity ratio F” value [1]?
Answer: 3.54

Question: What about the IC50 [1] of the same compound?
Answer: 1120 nM

Question: What about the Tox50 (HepG2 cells) of the same compound?
Answer: 3.97 µM

Question: And the “Average inhibition male (%)” value [2, 6]?
Answer: 96.8%

Question: And the “% inhibition male (individual replicates) R1” value [2, 7]?
Answer: 94.1%

Question: And the “% inhibition male (individual replicates) R3” value [2, 8]?
Answer: 94.5%

Question: And the “% inhibition male (individual replicates) R4” value [2, 9]?
Answer: 100.9%

Question: What about the “Selectivity Ratio M” value [2] of the same compound?
Answer: 3.32

Question: And the IC50 [2]?
Answer: 1200 nM
